In patent US10722582B2, “Targeted antimicrobial photodynamic therapy” (Purdue Research Foundation, priority 2018, dated 2020):
Marks after values point to notes of the source that are not given here.

What was measured:
Assay type in all cases: cell-based, Staphylococcus aureus
S. aureus = test: Antibacterial activity assay with LED light
Method: Antibacterial activity assay general protocol: Used LED light to test conditions. Bacteria were grown in TS broth, followed by 3 mM bipyridine in TS broth until log phase. Bacteria were then diluted with PBS, to OD 0.1 (˜10^) and then to ˜10^7 cfu/mL. 100 uL of bacteria were placed in 96 well plates with the appropriate GaPpIX concentration. 2× serial dilutions were then done to obtain other GaPpIX concentrations. Each concentration was done in triplicate. Bacteria were left incubating and irradiating for different amount of times at different light powers or left in the dark. 10× Serial dilutions were done and bacteria were plated for colony counting using the drop-plate technique. Colonies were counted after 24 hours. As reported herein, a 3-log reduction equals measurable antimicrobial action; a 6-log reduction equals total eradication.
Stock solution preparation (AVM-3-36, 10 nm AgNP). Prepared a solution of (AVM-2-273) GaPpIX-apoHb 1 mg/mL in MP H2O, deaerated. Took 10 mL of 10 nm AgNPs, centrifuged at 900 G for 5 min (Beckman, 3100 RPM), took supernantant and added 200 uL of GaPpIXHb. After overnight, centrifuged 3000 RPM g for 5 minutes (Beckman). Took supernantant and centrifuged using a 100 K CentriCon tube at 4000 RPM for 5 minutes, 3×. Added 15 mM borate buffer to NPs. Based on calibration curve, the stock solution is 1.94 ug/mL AgNP, so stock: 79 μg/mL AgNP, 10.37 μg/mL GaPpIXHb, 0.446 μg/mL GaPpIX (refer to AVM-2-293A and AVM-3-3).
The following antibacterial activity measurements were assayed in the presence of AgNP.

[1] = system: MRSA (USA800), clinical isolate NRS 387; test: aPDI with CFL irradiation (406 nm), planktonic bacteria, drop-plate colony count; conditions: for potency relative to dark toxicity (0 min exposure): 15 min CFL, 3-log reduction
Method: (§1) In all cases, we observed potent aPDI with bactericidal activities at 1-5 μM (Table 1). The consistent response to Ga-PpIX treatment is encouraging, as variable efficacy between strains is a known problem in antimicrobial photodynamic therapy (Nakonieczna, J. et al., Photodiagn. Photodyn. Ther. 2012, 9, 359-361). […] We note that PpIX is already approved as a photosensitizer for topical treatment of several skin diseases, but its utility is limited by poor photostability.
(§2) All bacterial strains were cultured at 37° C. in an aerobic atmosphere unless otherwise noted. […] Bacterial counts were estimated in units of cfu/mL by plating serial dilutions onto agar plates, followed by incubation for 16 hours at 37° C. Iron-challenged conditions were typically achieved by first growing the bacteria in standard (iron-replete) media (see Table 2), then harvesting and resuspending in media containing 3 mM 2,2′-bipyridine. Further details and variations on iron-deficient culture conditions are provided in Supporting Information.
(§3) A 20-W compact fluorescent lightbulb (CFL; Sunlite SL20/BLB) housed in an ellipsoidal reflector dome was used for aPDI, at an emission wavelength at 406 nm and a mean power density of 12.4 mW/cm^2 (after applying a 408-nm shortpass filter). Antimicrobial assays were performed on planktonic bacteria at 10^7 cfu/mL with variable exposure times to CFL irradiation, followed by plating on agar and incubation at 37° C. In a typical experiment, bacterial suspensions were transferred into 96-well plates then treated with 100-μL aliquots of Ga-PpIX or PpIX solution, with final concentrations ranging from 320 to 0.31 μg/mL, followed immediately with CFL irradiation for 5 to 15 minutes. The irradiated bacteria were plated onto agar in serial tenfold dilutions (10^7-10^1 cfu/mL); controls included one set of wells without photosensitizer, and one set of wells with photosensitizer but without 15 min irradiation, prior to plating (dark toxicity). Bacterial counts were determined by the drop-plate method using TS-agar plates, and reported in colony-forming units per milliliter (cfu/mL).
(§4) The irradiation source consisted of a 20-W compact fluorescent lightbulb (CFL; Sunlite SL20/BLB) housed in an ellipsoidal reflector dome. Emission spectra were measured with an Acton SpectraPro 2300i spectrometer (1200 gratings/inch), with major peaks at 406 and 438 nm and a minor peak at 548 nm (FIG. 10). Irradiance was measured with a handheld luminometer (Lux/FC HS1010A) positioned 4 cm from the CFL, yielding 91 lux or an average power density of 36.4 mW/cm^2; addition of a 425-nm or 408-nm shortpass filter yielded 31 lux or 12.4 mW/cm^2 corresponding with emission at 406 nm. The CFL produced only minor increases in temperature within the dome (28° C. after 15 min).

[2] = system: MRSA (USA200), clinical isolate NRS 383; test: as above; conditions: for potency relative to dark toxicity (0 min exposure): 15 min CFL, 3-log reduction
Method: as §1, §2, §3, §4

[3] = system: MRSA (USA700), clinical isolate NRS 386; test: as above; conditions: for potency relative to dark toxicity (0 min exposure): 15 min CFL, 3-log reduction
Method: as §1, §2, §3, §4

[4] = system: MRSA (USA500), clinical isolate NRS 385; test: as above; conditions: for potency relative to dark toxicity (0 min exposure): 15 min CFL, 3-log reduction
Method: as §1, §2, §3, §4

S. aureus (PCI 1203) = test: Competitive hemin uptake assay (fluorescence microscopy); conditions: standard conditions (TS media); no background subtraction
[5] = 0 min (dark), no irradiation (dark toxicity)
[6] = 0 min (dark), no irradiation (dark toxicity), listed as PpIX
[7] = 0 min (dark), no irradiation (dark toxicity), listed as Ga-

Row | Compound | concentration for 3-log reduction (measurable antimicrobial action) (S. aureus) [nM] | concentration for 6-log reduction (total eradication) (S. aureus) [nM] | Antimicrobial activity (minimum 3-log CFU reduction) [1, 5] [μM] | Antimicrobial activity (minimum 3-log CFU reduction) ([1]; 15 min CFL (11.2 J/cm^2)) [μM] | Eradication (6 log reduction) ([1]; 15 min CFL (11.2 J/cm^2)) [μM] | potency relative to dark toxicity (0 min exposure) [1] [x] | Eradication (6 log reduction) ([1]; No irradiation (dark toxicity)) [μM] | Antimicrobial activity (minimum 3-log CFU reduction) [2, 5] [μM] | Eradication (6 log reduction) ([2]; 15 min CFL (11.2 J/cm^2)) [μM] | potency relative to dark toxicity (0 min exposure) [2] [x] | Eradication (6 log reduction) ([2]; No irradiation (dark toxicity)) [μM] | Antimicrobial activity (minimum 3-log CFU reduction) [3, 5] [μM] | Antimicrobial activity (minimum 3-log CFU reduction) ([3]; 15 min CFL (11.2 J/cm^2)) [μM] | Eradication (6 log reduction) ([3]; 15 min CFL (11.2 J/cm^2)) [μM] | potency relative to dark toxicity (0 min exposure) [3] [x] | Eradication (6 log reduction) ([3]; No irradiation (dark toxicity)) [μM] | Antimicrobial activity (minimum 3-log CFU reduction) [4, 5] [μM] | Antimicrobial activity (minimum 3-log CFU reduction) ([4]; 15 min CFL (11.2 J/cm^2)) [μM] | Eradication (6 log reduction) ([4]; 15 min CFL (11.2 J/cm^2)) [μM] | potency relative to dark toxicity (0 min exposure) [4] [x] | also measured
1 | C=CC1=C(C)c2cc3[nH]c(cc4nc(cc5[nH]c(cc1n2)c(C)c5CCC(=O)O)C(CCC(=O)O)=C4C)c(C)c3C=C [PpIX (2), PpIX, reference compound] | 940 | 1900 | >146 | 9.1 | 18.3 | 16 | >146 | 36.3 | 4.6 | 32 | 146 | >146 | 36.3 | 73 | >4 | >146 | >146 | 18.3 | 36.3 | >8 | Antimicrobial activity (minimum 3-log CFU reduction) [1, 6]: 146 μM; Antimicrobial activity (minimum 3-log CFU reduction) ([2]; 15 min CFL (11.2 J/cm^2)): 1.1 μM; Antimicrobial activity (minimum 3-log CFU reduction) ([2]; 15 min CFL (11.2 J/cm^2), listed as PpIX): 1.1^c μM; Antimicrobial activity (minimum 3-log CFU reduction) [3, 6]: >146^d μM; Antimicrobial activity (minimum 3-log CFU reduction) [4, 6]: >146^d μM; Eradication (6 log reduction) ([4]; No irradiation (dark toxicity)): >146 μM; Fluorescence after 15 min (S. aureus (PCI 1203)): 11.90 a.u.; Fluorescence after 15 min exposure + 1 equiv. hemin (S. aureus (PCI 1203)): 10.15 a.u.
2 | Ga(III)-protoporphyrin [Ga-PpIX (1)] | 59 | 235 | 73 | 1.1 | 2.3 | 64 | 146 | 36.3 | 2.3 | 32 | 73 | >146 | 4.6 | 18.3 | >32 | >146 | >146 | 4.6 | 36.3 | >32 | Antimicrobial activity (minimum 3-log CFU reduction) ([2]; 15 min CFL (11.2 J/cm^2), listed as Ga-): 1.1^c μM; Antimicrobial activity (minimum 3-log CFU reduction) ([2]; 15 min CFL (11.2 J/cm^2), listed as GaPpIX (1)): 1.1 μM; Antimicrobial activity (minimum 3-log CFU reduction) [3, 7]: >146^d μM; Antimicrobial activity (minimum 3-log CFU reduction) [4, 7]: >146^d μM; Eradication (6 log reduction) ([4]; No irradiation (dark toxicity)): >146 μM; Fluorescence after 15 min (S. aureus (PCI 1203)): 18.09 a.u.; Fluorescence after 15 min exposure + 1 equiv. hemin (S. aureus (PCI 1203)): 15.08 a.u.
